Source: patent US8987445B2, “Sulfonamide compounds having TRPM8 antagonistic activity” (Mitsubishi Tanabe Pharma Corporation, priority 2011, dated 2015)

Target: human TRPM8 (Homo sapiens (Human), UniProt Q7Z2W7)
Assay: TRPM8 inhibition assay (menthol-induced calcium influx, FDSS)
Type: cell-based
Conditions: HEK293 cells stably expressing human TRPM8; 100 μM menthol; Fura-2AM Ca2+ signal; read-out: TRPM8 Blocking Test (IC50)
Description: The functional activity of compounds was determined by measuring changes in intracellular calcium concentration using a Ca^2+ sensitive fluorescent dye. The changes in fluorescent signal were monitored by the cell imaging technology by Hamamatsu Photonics's Functional Drug Screening System (FDSS). […] HEK293 cells stably expressing human TRPM8 were grown in flasks. On assay day, the culture medium was removed, and cells were washed with phosphate-buffered saline (PBS) and harvested with PBS containing 2 mM ethylenediaminetetraacetic acid, disodium salt (EDTA, 2Na). […] Subsequently, suspended 20,000 to 50,000 cells per well were incubated with test compound (at varying concentrations) in each well for 20 min at 37° C. Changes in intracellular Ca^2+ evoked by 100 μM menthol were measured for 2 min using FDSS. IC50 vales were determined from four-point concentration-response studies. Curves were generated using the average of quadruplicate wells for each data point.

human TRPM8, sequence (Q7Z2W7 whole entry): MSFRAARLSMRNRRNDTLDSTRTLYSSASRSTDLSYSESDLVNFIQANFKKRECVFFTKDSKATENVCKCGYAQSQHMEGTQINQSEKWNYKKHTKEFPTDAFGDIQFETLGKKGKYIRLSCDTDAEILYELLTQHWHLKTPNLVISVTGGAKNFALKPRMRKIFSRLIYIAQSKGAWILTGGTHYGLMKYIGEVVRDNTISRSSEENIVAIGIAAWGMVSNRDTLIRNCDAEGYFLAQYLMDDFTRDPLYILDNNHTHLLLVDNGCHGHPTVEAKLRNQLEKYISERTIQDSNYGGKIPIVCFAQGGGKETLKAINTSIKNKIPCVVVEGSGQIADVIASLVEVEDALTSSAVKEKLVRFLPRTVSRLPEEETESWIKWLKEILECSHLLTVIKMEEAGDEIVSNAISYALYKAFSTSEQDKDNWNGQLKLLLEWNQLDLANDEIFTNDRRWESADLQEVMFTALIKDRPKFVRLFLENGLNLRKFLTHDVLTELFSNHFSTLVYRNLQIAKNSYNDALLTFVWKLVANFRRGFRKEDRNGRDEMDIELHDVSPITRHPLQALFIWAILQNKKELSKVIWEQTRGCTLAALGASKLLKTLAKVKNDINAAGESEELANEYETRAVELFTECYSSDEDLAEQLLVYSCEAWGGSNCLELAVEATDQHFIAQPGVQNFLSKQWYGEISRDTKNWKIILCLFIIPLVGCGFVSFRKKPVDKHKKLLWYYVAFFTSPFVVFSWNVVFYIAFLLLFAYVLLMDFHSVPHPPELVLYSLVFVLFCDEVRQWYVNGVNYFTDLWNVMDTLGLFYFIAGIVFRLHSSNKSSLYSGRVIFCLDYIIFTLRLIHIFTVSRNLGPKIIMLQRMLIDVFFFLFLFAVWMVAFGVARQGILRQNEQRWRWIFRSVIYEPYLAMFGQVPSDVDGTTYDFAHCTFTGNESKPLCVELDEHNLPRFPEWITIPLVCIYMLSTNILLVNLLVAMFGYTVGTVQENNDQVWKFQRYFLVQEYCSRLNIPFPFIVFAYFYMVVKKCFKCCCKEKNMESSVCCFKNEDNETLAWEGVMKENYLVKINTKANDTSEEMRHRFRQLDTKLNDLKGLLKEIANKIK

Row | Structure (SMILES) | IC50 [nM]
1 | NC(=O)c1ccc(S(=O)(=O)N(Cc2ccc(OC(F)(F)F)cc2)c2ncc3ccccc3c2C2CC2)cc1 [Example 241] | 8.5
2 | Cc1cc2ccc(F)cc2nc1N(Cc1ccc(OC(F)(F)F)cc1)S(=O)(=O)c1ccc(C(=O)O)cc1 [Example 146] | 70
3 | Cc1cc2cccc(Cl)c2nc1N(Cc1ccc(OC(F)(F)F)cc1)S(=O)(=O)c1ccc(C(=O)O)cc1 [Example 133] | 4.3
4 | Cc1c(N(Cc2ccc(COC(F)(F)F)cc2)S(=O)(=O)c2ccc(C(=O)O)cc2)ncc2ccccc12 [Example 192] | 8.8
5 | Cc1c(N(Cc2ccc(C(O)(C3CC3)C(F)(F)F)cc2)S(=O)(=O)c2ccc(C(=O)O)cc2)ncc2ccccc12 (stereo not drawn) [Example 177] | 30
6 | Cc1c(N(Cc2ccc3c(Cl)n[nH]c3c2)S(=O)(=O)c2ccc(C(=O)O)cc2)ncc2ccccc12 [Example 176] | 21
7 | Cc1c(N(Cc2ccc(C(C)(O)C(F)(F)C(F)(F)F)cc2)S(=O)(=O)c2ccc(C(=O)O)cc2)ncc2ccccc12 (stereo not drawn) [Example 174] | 35
8 | Cc1cc2ccccc2nc1N(Cc1ccc(F)c(C(F)(F)F)c1)S(=O)(=O)c1ccc(C(=O)O)cc1 [Example 20] | 12
9 | Cc1c(N(Cc2ccc(-c3cccc(F)c3)cc2)S(=O)(=O)c2ccc(C(=O)O)cc2)ncc2ccccc12 [Example 89] | 15
10 | O=C(O)c1ccc(S(=O)(=O)N(Cc2ccc(OC(F)(F)F)cc2)c2cc3ccccc3c(Br)n2)cc1 [Example 143] | 131
11 | COC(C)(c1ccc(CN(c2ncc3ccccc3c2C)S(=O)(=O)c2ccc(C(=O)O)cc2)cc1F)C(F)(F)F (stereo not drawn) [Example 219] | 2.6
12 | Cc1c(N(Cc2cc3ccc(Cl)cc3s2)S(=O)(=O)c2ccc(C(=O)O)cc2)ncc2ccccc12 [Example 198] | 11
13 | O=C(O)c1ccc(S(=O)(=O)N(Cc2ccc(OC(F)(F)F)cc2)c2ncc(Cl)c3sccc23)cc1 [Example 212] | 75
14 | Cc1c(N(Cc2ccc(C(F)(F)C3CC3)cc2)S(=O)(=O)c2ccc(C(=O)O)cc2)ncc2ccccc12 [Example 191] | 4.6
15 | Cc1c(N(Cc2ccc3c(c2)CC(C)(C)O3)S(=O)(=O)c2ccc(C(=O)O)cc2)ncc2ccccc12 [Example 80] | 18
16 | Cc1c(N(Cc2ccc(Oc3ccccc3)cc2)S(=O)(=O)c2ccc(C(=O)O)cc2)ncc2ccccc12 [Example 28] | 16
17 | Cc1cc2ccccc2nc1N(Cc1cccc(C(F)(F)C2CC2)c1)S(=O)(=O)c1ccc(C(=O)O)cc1 [Example 206] | 21
18 | CC(C)c1nc(N(Cc2ccc(OC(F)(F)F)cc2)S(=O)(=O)c2ccc(C(=O)O)cc2)c(C2CC2)c2ccccc12 [Example 231] | 6.9
19 | Cc1c(N(Cc2ccc(OC(F)(F)F)cc2)S(=O)(=O)c2ccc(C(=O)O)cc2)nc(C2CCCC2)c2ccccc12 [Example 226] | 9.2
20 | Cc1c(N(Cc2ccc3c(Cl)c[nH]c3c2)S(=O)(=O)c2ccc(C(=O)O)cc2)ncc2ccccc12 [Example 121, 4-{[[(3-chloro-1H-indol-6-yl)methyl](4-methylisoquinolin-3-yl)amino]sulfonyl}benzoic acid] | 15
21 | CCc1cc2ccccc2nc1N(Cc1ccc(OC(F)(F)F)cc1)S(=O)(=O)c1ccc(C(=O)O)cc1 [Example 144] | 54
22 | O=C(O)c1ccc(S(=O)(=O)N(Cc2ccc(OC(F)(F)F)cc2)c2ncc3ccccc3c2Br)cc1 [Example 154] | 2.3
23 | CCONC(=O)c1ccc(S(=O)(=O)N(Cc2ccc(OC(F)(F)F)cc2)c2ncc3ccccc3c2C)cc1 [Example 240] | 18
24 | CC(C)c1nc(N(Cc2ccc(OC(F)(F)F)cc2)S(=O)(=O)c2ccc(C(=O)O)cc2)c(C(F)(F)F)c2ccccc12 [Example 110, 4-({[1-isopropyl-4-(trifluoromethyl)isoquinolin-3-yl][4-(trifluoromethoxy)benzyl]amino}sulfonyl)benzoic acid] | 7.4

More lines, now with the values ahead:

Row | IC50 [nM] | Structure (SMILES)
25 | 35 | Cc1c(N(Cc2ccc(OC3CC3)cc2)S(=O)(=O)c2ccc(C(=O)O)cc2)ncc2ccccc12 [Example 45]
26 | 1 | Cc1c(N(Cc2ccc(C(F)(F)C3CC3)c(Cl)c2)S(=O)(=O)c2ccc(C(=O)O)cc2)nc(C2CC2)c2ccccc12 [Example 181]
27 | 4.6 | Cc1c(N(Cc2sc3ccccc3c2Cl)S(=O)(=O)c2ccc(C(=O)O)cc2)ncc2ccccc12 [Example 197]
28 | 148 | Cc1nc2ccc(CN(c3ncc4ccccc4c3C)S(=O)(=O)c3ccc(C(=O)O)cc3)cc2s1 [Example 190]
29 | 11 | Cc1c(N(Cc2ccc(F)c(C(F)(F)C3CC3)c2)S(=O)(=O)c2ccc(C(=O)O)cc2)ncc2ccccc12 [Example 207]
30 | 1.7 | Cc1c(N(Cc2ccc(C(F)(F)C3CCC3)cc2)S(=O)(=O)c2ccc(C(=O)O)cc2)ncc2ccccc12 [Example 189]
31 | 5 | Cc1cc2ccccc2nc1N(Cc1ccc(OC(F)(F)F)cc1)S(=O)(=O)c1ccc(C(=O)O)cc1 [Example 17]
32 | 25 | CC(O)c1c(N(Cc2ccc(OC(F)(F)F)cc2)S(=O)(=O)c2ccc(C(=O)O)cc2)ncc2ccccc12 (stereo not drawn) [Example 113, 4-({[4-(1-hydroxyethyl)isoquinolin-3-yl][4-(trifluoromethoxy)benzyl]amino}sulfonyl)benzoic acid]
33 | 26 | Cc1c(N(Cc2ccc(-c3ccccc3)cc2)S(=O)(=O)c2ccc(C(=O)O)cc2)ncc2ccccc12 [Example 27]
34 | 1.4 | Cc1cc2ccccc2nc1N(Cc1ccc(C(F)(F)C2CC2)c(Cl)c1)S(=O)(=O)c1ccc(C(=O)O)cc1 [Example 202]
35 | 1.3 | Cc1c(N(Cc2cc3c(F)cc(F)cc3s2)S(=O)(=O)c2ccc(C(=O)O)cc2)ncc2ccccc12 [Example 194]
36 | 7.2 | CCOc1nc(N(Cc2ccc(OC(F)(F)F)cc2)S(=O)(=O)c2ccc(C(=O)O)cc2)c(C)c2ccccc12 [Example 228]
37 | 91 | Cc1cc2cc(F)ccc2nc1N(Cc1ccc(OC(F)(F)F)cc1)S(=O)(=O)c1ccc(C(=O)O)cc1 [Example 145]
38 | 11 | CCCc1nc(N(Cc2ccc(OC(F)(F)F)cc2)S(=O)(=O)c2ccc(C(=O)O)cc2)c(C)c2ccccc12 [Example 97, 4-({(4-methyl-1-propylisoquinolin-3-yl)[4-(trifluoromethoxy)benzyl]amino}sulfonyl)benzoic acid]
39 | 1 | Cc1c(N(Cc2ccc(C(F)(F)C3(C)CC3)cc2)S(=O)(=O)c2ccc(C(=O)O)cc2)ncc2ccccc12 [Example 209]
40 | 10 | NC(=O)c1ccc(S(=O)(=O)N(Cc2ccc(OC(F)(F)F)cc2)c2ncc3ccccc3c2C(F)(F)F)cc1 [Example 242]
41 | 21 | Cc1c(N(Cc2ccc(OC(F)(F)F)cc2)S(=O)(=O)c2ccc(C(N)=O)cc2)ncc2ccccc12 [Example 123, 4-({(4-methylisoquinolin-3-yl)[4-(trifluoromethoxy)benzyl]amino}sulfonyl)benzamide]
42 | 7.7 | Cc1cc2ccccc2nc1N(Cc1ccc(CC2CC2)cc1)S(=O)(=O)c1ccc(C(=O)O)cc1 [Example 183]
43 | 2.2 | Cc1c(N(Cc2cc3c(Cl)cccc3s2)S(=O)(=O)c2ccc(C(=O)O)cc2)ncc2ccccc12 [Example 196]
44 | 58 | Cc1c(N(Cc2ccc3c(c2)OC(C)(C)C3)S(=O)(=O)c2ccc(C(=O)O)cc2)ncc2ccccc12 [Example 81]
45 | 21 | COCc1nc(N(Cc2ccc(OC(F)(F)F)cc2)S(=O)(=O)c2ccc(C(=O)O)cc2)c(C)c2ccccc12 [Example 218]
